According to patent publication US6693208B2, “Compounds and compositions for delivering active agents” (Emisphere Technologies, Inc., priority 1999, dated 2004):

Test: Heparin oral/intracolonic delivery in rats, heparin activity by APTT
Assay type: in vivo, Sprague-Dawley rats
Experimental: Oral gavage (PO) and/or intracolonic (IC) dosing solutions containing a delivery agent compound and heparin sodium USP in 25% aqueous propylene glycol were prepared. Either the sodium salt of the compound was used or the free acid was converted to the sodium salt with one equivalent of sodium hydroxide. Typically, delivery agent compound and heparin (about 166-182 IU/mg) were mixed by vortex as dry powders. This dry mixture was dissolved in 25% v/v aqueous propylene glycol, vortexed and placed in a sonicator (about 37° C.). The pH was adjusted to about 7 (6.5 to 8.5) with aqueous NaOH (2N). The dosing solution was sonicated to produce a clear solution. The final volume was adjusted to 3.0 mL. The final delivery agent compound dose, heparin dose and volume dose amounts are listed below in Table 2.
The typical dosing and sampling protocols were as follows. Male Sprague-Dawley rats weighing between 275-350 g were fasted for 24 hours and were anesthetized with ketamine hydrochloride (88 mg/kg) intramuscularly immediately prior to dosing. A dosing group of five rats was administered one of the dosing solutions. For oral gavage (PO) dosing, an 11 cm Rusch 8 French catheter was adapted to a 1 mL syringe with a pipette tip. The syringe was filled with dosing solution by drawing the solution through the catheter, which was then wiped dry. The catheter was placed down the esophagus leaving 1 cm of tubing past the rat's incisors. Solution was administered by pressing the syringe plunger. For intracolonic (IC) dosing, a 7.5 cm 8 fr Rusch catheter was adapted to a 1 ml syringe with a pipette tip. The dosing catheter was inserted into the colon through the anus. until the tube was no longer visible. The dosing solution was expressed slowly into the colon.
Citrated blood samples were collected by cardiac puncture following the administration of ketamine (88 mg/kg), typically at time—0.25, 0.5, 1.0 and 1.5 hours. Heparin activity was determined by utilizing the activated partial thromboplastin time (APTT) according to the method of Henry, J. B., Clinical Diagnosis and Management by Laboratory Methods, Philadelphia, Pa., W. B. Saunders (1979). Previous studied indicated baseline values of about 20 sec. Results from the five rats in each group were averaged for each time point. The maximum is reported below in Table 2.

[1] = IC, 1 ml/kg, compound 50 mg/kg, heparin 25 mg/kg
[2] = PO, 3 ml/kg, compound 200 mg/kg, heparin 100 mg/kg
[3] = IC, 1 ml/kg, compound 50 mg/kg, heparin 100 mg/kg

Compound | Mean Peak APTT (sec) ± SD) [1] [s] | Mean Peak APTT (sec) ± SD) [2] [s] | Mean Peak APTT (sec) ± SD) [3] [s]
O=C(O)CCCCCCCCCNC(=O)c1cc(Cl)cc(Cl)c1O [Compound 4, N-(3,5-dichlorosalicyloyl)-10-aminodecanoic acid] | 94 ± 47.5 |  | 
O=C([O-])CCc1ccc(NC(=O)c2ccccc2O)c(F)c1.[Na+] [Compound 5, sodium 3-(4-salicyloylamino-3-fluorophenyl)propionate] | 89.9 ± 68.6 | 32.6 ± 5 | 
COc1ccc(O)c(C(=O)NCCCCCCCC(=O)O)c1 [Compound 1] | 102.3 ± 130.4 |  | 
COc1ccc(O)c(C(=O)Nc2ccc(CCC(=O)O)cc2)c1 [Compound 8] |  |  | 266.4 ± 165.7
COc1ccccc1C(=O)NCCCCCCCCCCC(=O)O [Compound 3] | 44.2 ± 16.2 |  | 
Cc1cc(F)cc(C(=O)Nc2ccc(CCC(=O)O)cc2)c1O [Compound 6] | 90.6 ± 50.9 | 33.8 ± 18.7 | 
COc1ccc(O)c(C(=O)Nc2ccc(CCCC(=O)O)cc2)c1 [Compound 9] |  |  | 192.8 ± 50.9
O=CNc1ccccc1C(=O)Nc1ccc(CCC(=O)O)cc1 [Compound 7] | 28.6 ± 6.1 |  | 
